Experimental data published in patent US11536685B2, “High throughput assay for identifying microbial redox enzymes” (TRUSTEES OF BOSTON UNIVERSITY, priority 2020, dated 2022).
Read-outs that look alike come from different tables or passages of the source.

Experiments:
C. ammoniagenes MAO = assay: AUR fluorescence assay in Rosetta2 (DE3) cells expressing MAO; type: cell-based
[1] = system: Rosetta2 (DE3) cells expressing MAO; assay: Cell viability of Rosetta2 (DE3) cells expressing MAO; type: cell-based, E. coli
C41 cells expressing MAO = assay: Cell viability of C41 cells expressing MAO; type: cell-based, E. coli; conditions: C41 AUR fluorescing cells expressing MAO
NicA2 [2] = target: T1, NicA2 (Pseudomonas putida, UniProt F8G0P2); assay: Chronoamperometric NicA2 electrochemical nicotine biosensor; type: biochemical, Pseudomonas putida S16; parameters: poly-histidine; made in house; host or cells: E. coli BL21 (DE3); conditions: for chronoamperometric response to compound alone: added in the middle of a chronoamperometric experiment
Experimental: Sensor Preparation: Electrochemical experiments were performed with VersaSTAT MC™ (Ametek Inc.™, Pennsylvania, Pa.). Sensors were prepared with Screen-Printed Prussian Blue/Carbon Electrode (Metrohm USA™, Riverview, Fla.). […] The sensors were allowed to dry overnight at 4° C. with no light prior to use.
Chronoamperometric responses were recorded over time, with a potential −0.2 V (versus Ag/AgCl). […] Similar experiments were performed to evaluate the selectivity of the sensor to cotinine.
The electrochemical biosensor was composed of a Screen-Printed Prussian Blue/Carbon Electrode with a Ag/AgCl reference electrode (RE). […] Chronoamperometric responses were recorded over time with a potential −0.2 V versus the RE.
The selectivity of the biosensor was evaluated by measuring the chronoamperometric response in the presence of common interferents at relevant physiological concentrations in sweat (see e.g., FIG. 22C).

NicA2 [3] = target: T1, NicA2; assay: AUR fluorescence of cells expressing APEX2 and NicA2; type: cell-based, Pseudomonas putida S16
candidate MRE = assay: Optimized MRE assay, clone responsive to hydrocortisone; type: cell-based; conditions: Rosetta2 (DE3) cells, clone from mixture of seven gDNA libraries
Source text: Further analysis of the fluorescence cells identified two clones that expressed a candidate MRE responsive to lidocaine (FIG. 40A) and two clones that were responsive to cortisol (FIG. 40B). Additionally, the inventors also discovered one clone expressing a candidate MRE responsive to hydrocortisone (FIGS. 41A-41F).

nicA2 [4] = target: T2, nicA2 (Pseudomonas putida, UniProt F8G0P2); assay: FACS percentage of fluorescent cells on nicA2 induction; type: cell-based; conditions: induced with 50 μM IPTG; APEX2, AUR and nicotine present
T2 construct: expressed in transfected cells; host or cells: E. coli
T2 sequence (F8G0P2 39-482): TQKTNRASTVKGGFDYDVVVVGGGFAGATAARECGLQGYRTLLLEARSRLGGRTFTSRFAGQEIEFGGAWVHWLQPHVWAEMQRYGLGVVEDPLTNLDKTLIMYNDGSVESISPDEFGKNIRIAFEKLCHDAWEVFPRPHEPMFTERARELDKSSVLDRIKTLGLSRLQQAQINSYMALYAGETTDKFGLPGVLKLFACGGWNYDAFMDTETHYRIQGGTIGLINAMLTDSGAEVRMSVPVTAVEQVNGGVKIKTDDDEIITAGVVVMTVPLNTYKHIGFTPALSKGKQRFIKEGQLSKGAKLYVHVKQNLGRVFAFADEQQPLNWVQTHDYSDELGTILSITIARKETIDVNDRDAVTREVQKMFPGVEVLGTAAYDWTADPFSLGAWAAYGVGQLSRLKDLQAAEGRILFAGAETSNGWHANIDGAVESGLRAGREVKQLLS

Compound | AUR fluorescence (C. ammoniagenes MAO) | cell viability [1] | cell viability as compared to Rosetta2 (DE3) cells (C41 cells expressing MAO) | also measured
NCCc1c[nH]c2ccccc12 [tryptamine] | produce fluorescent signal | do not decrease cell viability | decreased viability | –
CN1C(=O)CC[C@H]1c1cccnc1 [Cotinine] | – | – | – | effect upon the response to nicotine (NicA2 [2]; 200 μM nicotine solution added to solution of the compound): minimal effect
c1cncc(C2=NCCC2)c1 [myosmine] | – | – | – | fluorescence of cells expressing APEX2 and NicA2 (NicA2 [3]): not; response to nicotine addition after NicA2 was inhibited by myosmine (NicA2 [2]): Minimal responses; chronoamperometric response to compound alone (NicA2 [2]): Minimal responses; chronoamperometric response to compound alone (NicA2 [2]; listed as Myosmine): Minimal response; response to nicotine addition after NicA2 was inhibited by myosmine (NicA2 [2]; listed as Myosmine): Minimal response
C[C@]12CCC(=O)C=C1CC[C@@H]1[C@@H]2[C@@H](O)C[C@@]2(C)[C@H]1CC[C@]2(O)C(=O)CO [hydrocortisone] | – | – | – | fluorescence over time as compared to no hydrocortisone (candidate MRE): increased fluorescence
NCC(O)c1ccc(O)cc1 (stereo not drawn) [octopamine] | produce fluorescent signal | do not decrease cell viability | decreased viability | –
NCCc1ccc(O)cc1 [tyramine] | produce fluorescent signal | do not decrease cell viability | decreased viability | –
CC(C)S[C@@H]1O[C@H](CO)[C@H](O)[C@H](O)[C@H]1O [IPTG, isopropyl b-D-1-thiogalactopyranoside] | – | – | – | percentage of cells fluorescent (nicA2 [4]): 79.3%
NCc1ccccc1 [benzylamine] | produce fluorescent signal | do not decrease cell viability | – | –
CN1CCCC1c1cccnc1 (stereo not drawn) [nicotine] | – | substantially decreased | – | fluorescence of cells expressing APEX2 and NicA2 (NicA2 [3]): robust fluorescence; time of return to baseline (NicA2 [2]; 200 μM nicotine): 6000 s; time to maximal current (NicA2 [2]; 200 μM nicotine): 4000 s; Maximal current (NicA2 [2]; 200 μM nicotine, 2 nmol NicA2, −0.2 V versus Ag/AgCl, PBS): ~250 nA
